Among the data in PubChem BioAssay (NCI) are GI50 and TGI values, retold here.

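Following 48 hours of exposure in 96-well plates, responses at five concentrations were used to interpolate endpoints linearly. At the GI50, growth is halved. At the TGI there is no net growth.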 Some results are limits rather than exact numbers.

Among the test systems are CCRF-CEM leukemia; HOP-92 NSCLC; LOX IMVI melanoma; NCI-H226 lung; NCI-H522 lung; SK-MEL-28 melanoma; SK-OV-3 ovarian; HL-60(TB) leukemia; MOLT-4 leukemia; SK-MEL-2 melanoma.
What all share (experiment): growth of human tumour cells (NCI), 48 h

For `C[CH2][Ge]([CH2]C)([CH2]C)[O]C(=O)C(OC(C)=O)c1ccccc1` (configuration not stated), the GI50 with CCRF-CEM leukemia is 24.1 µM; in the test with HOP-92 NSCLC, 57.9 µM; with LOX IMVI melanoma it was > 100 µM; with NCI-H226 lung it was > 100 µM; with NCI-H522 lung, > 100 µM; with SK-MEL-28 melanoma it was > 100 µM. Moreover, in the test with SK-OV-3 ovarian, the GI50 is > 100 µM. Moreover, the TGI in the test on CCRF-CEM leukemia, in the test on HOP-92 NSCLC, with LOX IMVI melanoma, with NCI-H226 lung, in the test with NCI-H522 lung and in the test on SK-MEL-28 melanoma was > 100 µM in each case. For the same compound, in the test on SK-OV-3 ovarian, the TGI is > 100 µM.

In the case of `COc1ccc2c3c([nH]c2c1[N+](=O)[O-])C(C)N(Cc1ccccc1)CC3` (configuration not stated), the TGI is > 100 µM with CCRF-CEM leukemia; 6.1 µM with HL-60(TB) leukemia; > 100 µM in the test on LOX IMVI melanoma; 23.4 µM in the test on MOLT-4 leukemia; > 100 µM in the test on NCI-H226 lung; > 100 µM in the test on SK-MEL-2 melanoma. Moreover, the TGI in the test on SK-MEL-28 melanoma was 59.5 µM.

Take `O=C1C=CC=C/C1=C1/SC(c2ccccc2)=C(O)N1c1ccccc1`: the TGI with HOP-92 NSCLC, in the test on NCI-H226 lung, with NCI-H522 lung, in the test with SK-MEL-2 melanoma, with SK-MEL-28 melanoma and in the test with SK-OV-3 ovarian was > 100 µM each time.

On to `COc1ccc2c(c1)[nH]c(=O)c1c3cccc(F)c3cn21`, for which the GI50 in the test with CCRF-CEM leukemia is 0.0282 µM; in the test with HL-60(TB) leukemia, 0.0183 µM; with LOX IMVI melanoma, 0.0759 µM; with MOLT-4 leukemia, 0.0425 µM; with NCI-H226 lung, 12.1 µM; in the test on NCI-H522 lung, 0.0756 µM. Besides, the results for the GI50 with SK-MEL-2 melanoma, in the test on SK-MEL-28 melanoma and with SK-OV-3 ovarian were 0.469 µM, 0.351 µM and 0.0848 µM, respectively. Further, the TGI with CCRF-CEM leukemia was 0.304 µM; with HL-60(TB) leukemia it was 0.0515 µM; in the test on LOX IMVI melanoma it was > 100 µM; in the test with MOLT-4 leukemia, 14.6 µM; in the test on NCI-H226 lung, 44.7 µM; in the test on NCI-H522 lung it was > 35.5 µM. For the same compound, the values for the TGI in the test with SK-MEL-2 melanoma, in the test with SK-MEL-28 melanoma and with SK-OV-3 ovarian were > 100 µM, > 69.8 µM and > 83.5 µM, respectively.

For `O=C1N2Cc3c4ccc5c3CN3C(=O)N6Cc7c(ccc(c7CN1C6(c1ccccc1)C23c1ccccc1)OCCOCCNCCOCCO4)OCCOCCNCCOCCO5` (configuration not stated), the TGI in the test with CCRF-CEM leukemia is > 100 µM; in the test on HOP-92 NSCLC, 57.4 µM; in the test with MOLT-4 leukemia, > 100 µM; in the test on NCI-H226 lung it was > 100 µM; in the test on NCI-H522 lung, > 100 µM; in the test with SK-MEL-2 melanoma, > 100 µM. Also, the TGI in the test on SK-MEL-28 melanoma and with SK-OV-3 ovarian was > 100 µM throughout.

For the compound `COc1ccc2c(c1)nc(C(=O)c1ccco1)c(C(F)(F)F)[n+]2[O-]`, the GI50 with CCRF-CEM leukemia, with HL-60(TB) leukemia, in the test with LOX IMVI melanoma, with MOLT-4 leukemia, in the test with NCI-H226 lung and in the test with NCI-H522 lung was > 100 µM in each case. For the same compound, the GI50 with SK-MEL-2 melanoma, in the test on SK-MEL-28 melanoma and in the test on SK-OV-3 ovarian was > 100 µM throughout. The TGI in the test on CCRF-CEM leukemia, with HL-60(TB) leukemia, in the test with LOX IMVI melanoma, in the test with MOLT-4 leukemia, in the test on NCI-H226 lung and in the test on NCI-H522 lung was > 100 µM each time. Besides, the TGI with SK-MEL-2 melanoma, in the test on SK-MEL-28 melanoma and in the test on SK-OV-3 ovarian was > 100 µM throughout.

As for `CCOC(=O)c1cc2c(cc1Cl)SC(=Nc1ccccc1)N(S(=O)(=O)c1ccc(Cl)cc1)S2(=O)=O`, the GI50 in the test on CCRF-CEM leukemia was 2.57 µM; in the test with LOX IMVI melanoma, 3.17 µM; in the test with MOLT-4 leukemia, 11.7 µM; in the test with NCI-H226 lung it was 6.03 µM; in the test with NCI-H522 lung it was 15.5 µM; in the test on SK-MEL-2 melanoma it was 12.1 µM. For the same compound, the GI50 in the test with SK-MEL-28 melanoma was 21.6 µM; in the test on SK-OV-3 ovarian, 17.4 µM. Also, the TGI was determined as 7.4 µM in the test on CCRF-CEM leukemia; 15 µM in the test with LOX IMVI melanoma; 37.3 µM in the test on MOLT-4 leukemia; 28.2 µM in the test with NCI-H226 lung; 42.8 µM in the test with NCI-H522 lung; 30.4 µM in the test with SK-MEL-2 melanoma. Also, the TGI in the test on SK-MEL-28 melanoma is 74.6 µM; in the test on SK-OV-3 ovarian it was 35.2 µM.

Regarding `C[C@]12CC[C@H]3[C@@H](CC=C4C[C@@H](N5CCCC5)CC[C@@]43C)[C@@H]1C/C(=C\c1cccc(OCCN3CCOCC3)c1)[C@@H]2O`, the GI50 in the test with HL-60(TB) leukemia was 4.32 µM; in the test with LOX IMVI melanoma, 2.61 µM; in the test with NCI-H226 lung it was 22 µM; in the test on NCI-H522 lung, 8.21 µM; in the test with SK-MEL-2 melanoma, 14.1 µM; in the test on SK-MEL-28 melanoma it was 2.01 µM. Moreover, the GI50 with SK-OV-3 ovarian was 17.2 µM. In addition, the TGI is > 100 µM with HL-60(TB) leukemia; 7.43 µM with LOX IMVI melanoma; 53.8 µM in the test on NCI-H226 lung; 29.7 µM in the test on NCI-H522 lung; 31.8 µM in the test on SK-MEL-2 melanoma; 3.99 µM with SK-MEL-28 melanoma. In the test with SK-OV-3 ovarian, the TGI was found to be 35.1 µM.

`OC(COC(c1ccccc1)(c1ccccc1)c1ccccc1)C(O)CC1SCCS1` (configuration not stated): the TGI was > 100 µM in the test on CCRF-CEM leukemia; > 100 µM with HL-60(TB) leukemia; 32 µM in the test with LOX IMVI melanoma; 68.7 µM in the test on MOLT-4 leukemia; 35.3 µM in the test on NCI-H226 lung; 34.3 µM in the test on SK-MEL-2 melanoma. In addition, the TGI was 48.8 µM in the test with SK-MEL-28 melanoma and 48.9 µM in the test with SK-OV-3 ovarian.

For the compound `Nc1nc([Se])c2ncn(C3OC(CO)C(O)C3O)c2n1` (configuration not stated), the GI50 is 2.28 µM in the test with CCRF-CEM leukemia; 4.49 µM in the test on HL-60(TB) leukemia; 2.85 µM in the test with LOX IMVI melanoma; 3.4 µM in the test on MOLT-4 leukemia; 9.29 µM in the test with NCI-H226 lung; 42.5 µM in the test with NCI-H522 lung. Moreover, the GI50 in the test on SK-MEL-2 melanoma was 59.8 µM; in the test with SK-MEL-28 melanoma, > 100 µM; with SK-OV-3 ovarian it was 6.96 µM. Further, the TGI in the test on CCRF-CEM leukemia, in the test on HL-60(TB) leukemia, in the test with LOX IMVI melanoma, in the test on MOLT-4 leukemia, in the test with NCI-H226 lung and with NCI-H522 lung was > 100 µM in each case. For the same compound, the TGI with SK-MEL-2 melanoma, in the test on SK-MEL-28 melanoma and in the test with SK-OV-3 ovarian was > 100 µM throughout.
